Measured values as given in ChEMBL document CHEMBL1201862, “PubChem BioAssay data set” (2004).
The source made the active and inactive calls.

What was measured:
[1] = target: Prothrombin (Homo sapiens, UniProt P00734); assay: Thrombin 1536 HTS Dose Response Confirmation. [Related pubchem assays: 1046 (Thrombin 1536 HTS; hits were confirmed in this assay)]; format: functional
[2] = target: T1, Replicative DNA helicase DnaB (Mycobacterium tuberculosis, UniProt P9WMR3); assay: DnaB intein splicing inhibitors, dose response, biochemical, cell-free fluorescence (AID 449749); format: functional
T1 sequence (P9WMR3 whole entry): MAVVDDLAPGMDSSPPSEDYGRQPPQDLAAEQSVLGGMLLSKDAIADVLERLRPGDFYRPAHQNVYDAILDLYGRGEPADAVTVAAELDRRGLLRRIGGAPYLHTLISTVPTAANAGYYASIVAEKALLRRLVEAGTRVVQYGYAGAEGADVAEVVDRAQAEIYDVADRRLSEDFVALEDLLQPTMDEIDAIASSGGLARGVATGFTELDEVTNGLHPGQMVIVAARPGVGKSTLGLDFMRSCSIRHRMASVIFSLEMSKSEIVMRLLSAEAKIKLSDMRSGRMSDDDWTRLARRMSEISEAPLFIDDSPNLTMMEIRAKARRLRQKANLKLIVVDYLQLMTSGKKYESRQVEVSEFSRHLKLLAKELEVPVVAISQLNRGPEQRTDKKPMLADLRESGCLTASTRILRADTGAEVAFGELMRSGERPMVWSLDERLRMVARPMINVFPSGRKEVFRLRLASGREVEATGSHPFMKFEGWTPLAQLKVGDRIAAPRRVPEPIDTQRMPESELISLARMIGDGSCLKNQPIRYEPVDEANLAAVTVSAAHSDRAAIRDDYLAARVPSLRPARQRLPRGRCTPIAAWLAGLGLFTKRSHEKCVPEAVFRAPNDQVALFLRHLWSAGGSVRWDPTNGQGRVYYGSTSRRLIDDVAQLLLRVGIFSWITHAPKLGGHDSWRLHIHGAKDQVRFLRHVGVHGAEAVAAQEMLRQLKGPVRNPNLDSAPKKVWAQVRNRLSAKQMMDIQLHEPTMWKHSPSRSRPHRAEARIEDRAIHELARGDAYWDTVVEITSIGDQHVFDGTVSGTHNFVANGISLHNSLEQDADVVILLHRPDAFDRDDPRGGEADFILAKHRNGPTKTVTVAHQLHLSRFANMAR

[3] = target: T2, Protein RecA (Mycobacterium tuberculosis, UniProt P9WHJ3); assay: Fluorescence Cell-Free Homogeneous Dose Retest to Identify Inhibitors of RecA-Intein Splicing Activity. [Related pubchem assays (depositor defined):AID2097, AID2223, AID489010, AID492950]; format: functional
T2 sequence (P9WHJ3 whole entry): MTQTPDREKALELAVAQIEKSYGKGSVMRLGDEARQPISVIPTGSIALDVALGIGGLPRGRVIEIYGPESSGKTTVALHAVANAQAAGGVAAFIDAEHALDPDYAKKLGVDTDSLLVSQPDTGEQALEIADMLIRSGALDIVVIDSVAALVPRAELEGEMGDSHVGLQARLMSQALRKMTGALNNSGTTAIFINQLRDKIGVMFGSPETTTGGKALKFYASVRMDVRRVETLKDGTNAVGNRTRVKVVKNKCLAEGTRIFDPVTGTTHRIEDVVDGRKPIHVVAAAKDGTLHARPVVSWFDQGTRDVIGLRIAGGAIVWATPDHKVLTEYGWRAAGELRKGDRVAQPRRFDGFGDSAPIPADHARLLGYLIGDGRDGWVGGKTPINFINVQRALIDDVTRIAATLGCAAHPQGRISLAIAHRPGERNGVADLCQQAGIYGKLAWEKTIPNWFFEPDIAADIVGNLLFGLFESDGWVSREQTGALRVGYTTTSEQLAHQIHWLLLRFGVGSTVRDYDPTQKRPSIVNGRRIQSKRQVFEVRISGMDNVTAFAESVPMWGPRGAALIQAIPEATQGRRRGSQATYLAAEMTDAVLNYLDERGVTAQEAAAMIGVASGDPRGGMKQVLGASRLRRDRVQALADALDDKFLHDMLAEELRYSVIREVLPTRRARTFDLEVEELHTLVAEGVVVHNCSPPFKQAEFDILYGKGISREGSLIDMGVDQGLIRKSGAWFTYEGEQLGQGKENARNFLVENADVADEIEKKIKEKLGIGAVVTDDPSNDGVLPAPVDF

[4] = cells; format: functional, cell-based
[5] = cells; format: functional, cell-based; remark: listed apart in the source
[6] = target: Major prion protein (Homo sapiens, UniProt P04156); format: functional, cell-based
[7] = cells
[8] = blockers of HIV-1 ZM109 envelope-driven cell-cell fusion – HeLa effector, CEM target cells, luciferase, cherry-pick, dose response (AID 652058); format: functional, cell-based;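 also: luciferase signal from HIV-1 Env mediated cell-cell fusion of effector and target cells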
[9] = HIV-1 AD8 envelope cell-cell fusion blockers – cherry-pick, dose response (AID 652062); format: functional, cell-based;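 also: luciferase signal from cell-cell fusion driven by HIV-1 clade B AD8 Env; potency is for inhibitors of fusion seen as a drop in luminescence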
[10] = target: Estrogen receptor beta (Homo sapiens, UniProt Q92731);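 also: recombinant ER-beta bound to coactivator SRC1 peptide in presence of estradiol agonist; inhibitors block coactivator peptide binding and lower the FRET signal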
Estrogen receptor beta, sequence (Q92731 whole entry): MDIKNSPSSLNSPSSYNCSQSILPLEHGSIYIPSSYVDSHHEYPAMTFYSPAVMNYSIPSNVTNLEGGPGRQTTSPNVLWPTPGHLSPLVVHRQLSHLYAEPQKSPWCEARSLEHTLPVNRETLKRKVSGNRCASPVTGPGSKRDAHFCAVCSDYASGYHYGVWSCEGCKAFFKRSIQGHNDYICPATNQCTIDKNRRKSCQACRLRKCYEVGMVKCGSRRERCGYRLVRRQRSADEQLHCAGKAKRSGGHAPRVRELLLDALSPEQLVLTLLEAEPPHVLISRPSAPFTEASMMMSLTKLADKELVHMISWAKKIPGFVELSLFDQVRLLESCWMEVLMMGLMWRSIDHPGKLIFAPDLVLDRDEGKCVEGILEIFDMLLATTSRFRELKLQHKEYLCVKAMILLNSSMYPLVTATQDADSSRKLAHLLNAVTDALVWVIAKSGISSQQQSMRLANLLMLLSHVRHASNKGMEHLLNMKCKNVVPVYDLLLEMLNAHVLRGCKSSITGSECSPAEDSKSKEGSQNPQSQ

[11] = target: FAD-linked sulfhydryl oxidase ALR (Homo sapiens, UniProt P55789); assay: ALR-catalysed DTT oxidation blockers – biochemical, H2O2 detection, luminescence, cherry-pick, dose response (AID 493248)
FAD-linked sulfhydryl oxidase ALR, sequence (P55789 whole entry): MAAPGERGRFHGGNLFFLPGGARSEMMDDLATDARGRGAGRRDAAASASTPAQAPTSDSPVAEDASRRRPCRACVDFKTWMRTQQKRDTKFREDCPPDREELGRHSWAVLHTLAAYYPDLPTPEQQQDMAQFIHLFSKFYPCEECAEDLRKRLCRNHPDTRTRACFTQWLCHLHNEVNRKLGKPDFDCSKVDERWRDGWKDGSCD

[12] = test system: Vero; assay: viability of Vero cells under compound – cytotoxicity control for flavivirus capping enzyme inhibitors (AID 588742); format: functional; settings: Chlorocebus sabaeus
[13] = target: Genome polyprotein (dengue virus type 2, UniProt P29990); assay: flavivirus cap methylation enzyme inhibition – biochemical, confirmation dose response, primary screen (AID 588689); format: functional
Genome polyprotein, sequence (P29990 2492-3391 limits assumed): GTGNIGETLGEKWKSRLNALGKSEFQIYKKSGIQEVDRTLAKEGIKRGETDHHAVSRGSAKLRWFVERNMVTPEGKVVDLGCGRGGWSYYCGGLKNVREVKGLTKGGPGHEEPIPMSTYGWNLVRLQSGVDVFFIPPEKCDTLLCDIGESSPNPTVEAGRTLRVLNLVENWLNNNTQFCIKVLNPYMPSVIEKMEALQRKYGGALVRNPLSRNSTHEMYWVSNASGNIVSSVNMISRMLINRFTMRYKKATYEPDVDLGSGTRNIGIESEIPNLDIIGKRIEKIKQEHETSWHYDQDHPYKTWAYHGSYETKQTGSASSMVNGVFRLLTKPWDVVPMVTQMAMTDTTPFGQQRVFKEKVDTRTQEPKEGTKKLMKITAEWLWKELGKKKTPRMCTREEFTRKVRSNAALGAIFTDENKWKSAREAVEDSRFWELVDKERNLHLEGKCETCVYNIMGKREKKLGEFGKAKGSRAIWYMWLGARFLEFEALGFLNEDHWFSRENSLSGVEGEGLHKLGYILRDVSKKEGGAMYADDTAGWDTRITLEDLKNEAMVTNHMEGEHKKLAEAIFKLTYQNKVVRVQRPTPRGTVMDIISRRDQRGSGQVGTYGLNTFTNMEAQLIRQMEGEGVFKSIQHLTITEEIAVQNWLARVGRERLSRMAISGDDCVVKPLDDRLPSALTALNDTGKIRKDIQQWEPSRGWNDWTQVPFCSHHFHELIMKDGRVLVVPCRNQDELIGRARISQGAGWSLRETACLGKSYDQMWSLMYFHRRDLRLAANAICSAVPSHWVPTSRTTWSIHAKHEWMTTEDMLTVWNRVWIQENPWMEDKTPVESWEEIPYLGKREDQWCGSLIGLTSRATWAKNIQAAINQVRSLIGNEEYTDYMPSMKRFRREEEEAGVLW

[14] = A549 cell cytotoxicity, dose response, cytotoxicity control, plate reader, cherry-pick, antagonist series (AID 743412); format: functional, cell-based
[15] = toxicity toward HepG2 liver cells – cell-based, plate reader, cherry-pick, antagonist series, cytotoxicity control, dose response (AID 743416); format: functional
[16] = blockers of bursicon-stimulated LGR2 cAMP reporter – cell-based, HEK293, CRE-luciferase reporter, cherry pick, set 2, dose response (AID 743343); format: functional;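 also: transfected cells were stimulated with diluted bursicon conditioned medium after compound addition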
[17] = NIH-3T3 fibroblast cytotoxicity, dose response, cytotoxicity control, cell-based, fluorescence, Alamar Blue, secondary assay (AID 2327); format: functional;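 also: NIH-3T3 mouse fibroblasts cultured with fluconazole at 8 µg/mL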
[18] = fluconazole-exposed Candida albicans growth modulators – fluorescence, retest, confirmation (AID 2467); format: functional, cell-based
[19] = target: Induced myeloid leukemia cell differentiation protein Mcl-1 (Homo sapiens, UniProt Q07820); format: functional
Induced myeloid leukemia cell differentiation protein Mcl-1, sequence (Q07820 whole entry): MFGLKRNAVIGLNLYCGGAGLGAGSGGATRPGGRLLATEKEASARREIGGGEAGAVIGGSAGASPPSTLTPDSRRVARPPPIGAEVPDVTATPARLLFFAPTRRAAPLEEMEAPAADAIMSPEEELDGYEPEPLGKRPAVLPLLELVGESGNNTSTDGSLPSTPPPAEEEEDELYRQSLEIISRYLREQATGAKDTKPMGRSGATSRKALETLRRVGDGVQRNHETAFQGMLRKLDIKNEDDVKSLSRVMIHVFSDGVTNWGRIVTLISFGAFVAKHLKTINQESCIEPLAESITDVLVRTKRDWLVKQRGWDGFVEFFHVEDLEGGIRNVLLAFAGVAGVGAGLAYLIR

[20] = target: T3, Mannose-6-phosphate isomerase (Homo sapiens, UniProt P34949); assay: MPI inhibition at elevated mannose 6-phosphate – biochemical, fluorescence intensity, high mannose 6-phosphate, primary screen (AID 1220)
T3 sequence (P34949 whole entry): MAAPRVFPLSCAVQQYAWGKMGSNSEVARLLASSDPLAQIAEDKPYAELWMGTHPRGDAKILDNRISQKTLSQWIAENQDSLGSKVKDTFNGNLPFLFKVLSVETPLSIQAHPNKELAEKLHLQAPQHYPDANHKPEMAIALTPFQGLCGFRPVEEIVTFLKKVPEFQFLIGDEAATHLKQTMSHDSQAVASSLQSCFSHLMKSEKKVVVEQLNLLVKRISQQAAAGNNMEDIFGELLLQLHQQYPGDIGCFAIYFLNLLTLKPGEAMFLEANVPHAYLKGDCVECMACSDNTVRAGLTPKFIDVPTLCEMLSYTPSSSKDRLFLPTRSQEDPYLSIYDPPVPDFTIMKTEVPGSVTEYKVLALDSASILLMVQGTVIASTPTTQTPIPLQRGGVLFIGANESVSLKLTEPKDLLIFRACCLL

[21] = target: Glucose-6-phosphate 1-dehydrogenase (Homo sapiens, UniProt P11413); assay: inhibition of Homo sapiens G6PD, dose series – biochemical, fluorescence, selectivity assay for P. falciparum G6PD inhibitor project, dose response (AID 504792); format: functional
Glucose-6-phosphate 1-dehydrogenase, sequence (P11413 whole entry): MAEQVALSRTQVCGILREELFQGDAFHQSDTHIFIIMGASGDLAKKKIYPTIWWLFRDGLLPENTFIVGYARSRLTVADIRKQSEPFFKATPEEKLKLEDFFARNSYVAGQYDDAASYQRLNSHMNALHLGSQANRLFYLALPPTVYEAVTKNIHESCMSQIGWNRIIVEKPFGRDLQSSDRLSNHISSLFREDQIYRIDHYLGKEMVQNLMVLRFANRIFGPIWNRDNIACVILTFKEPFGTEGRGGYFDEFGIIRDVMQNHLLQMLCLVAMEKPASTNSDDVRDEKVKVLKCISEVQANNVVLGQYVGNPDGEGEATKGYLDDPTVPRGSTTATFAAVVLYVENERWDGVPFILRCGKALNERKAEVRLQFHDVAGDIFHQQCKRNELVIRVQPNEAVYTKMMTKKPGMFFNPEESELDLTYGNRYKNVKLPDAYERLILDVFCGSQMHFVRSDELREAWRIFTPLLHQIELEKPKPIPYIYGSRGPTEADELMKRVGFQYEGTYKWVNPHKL

[22] = target: T4, Apoptotic protease-activating factor 1 (Homo sapiens, UniProt O14727); format: functional
T4 sequence (O14727 whole entry): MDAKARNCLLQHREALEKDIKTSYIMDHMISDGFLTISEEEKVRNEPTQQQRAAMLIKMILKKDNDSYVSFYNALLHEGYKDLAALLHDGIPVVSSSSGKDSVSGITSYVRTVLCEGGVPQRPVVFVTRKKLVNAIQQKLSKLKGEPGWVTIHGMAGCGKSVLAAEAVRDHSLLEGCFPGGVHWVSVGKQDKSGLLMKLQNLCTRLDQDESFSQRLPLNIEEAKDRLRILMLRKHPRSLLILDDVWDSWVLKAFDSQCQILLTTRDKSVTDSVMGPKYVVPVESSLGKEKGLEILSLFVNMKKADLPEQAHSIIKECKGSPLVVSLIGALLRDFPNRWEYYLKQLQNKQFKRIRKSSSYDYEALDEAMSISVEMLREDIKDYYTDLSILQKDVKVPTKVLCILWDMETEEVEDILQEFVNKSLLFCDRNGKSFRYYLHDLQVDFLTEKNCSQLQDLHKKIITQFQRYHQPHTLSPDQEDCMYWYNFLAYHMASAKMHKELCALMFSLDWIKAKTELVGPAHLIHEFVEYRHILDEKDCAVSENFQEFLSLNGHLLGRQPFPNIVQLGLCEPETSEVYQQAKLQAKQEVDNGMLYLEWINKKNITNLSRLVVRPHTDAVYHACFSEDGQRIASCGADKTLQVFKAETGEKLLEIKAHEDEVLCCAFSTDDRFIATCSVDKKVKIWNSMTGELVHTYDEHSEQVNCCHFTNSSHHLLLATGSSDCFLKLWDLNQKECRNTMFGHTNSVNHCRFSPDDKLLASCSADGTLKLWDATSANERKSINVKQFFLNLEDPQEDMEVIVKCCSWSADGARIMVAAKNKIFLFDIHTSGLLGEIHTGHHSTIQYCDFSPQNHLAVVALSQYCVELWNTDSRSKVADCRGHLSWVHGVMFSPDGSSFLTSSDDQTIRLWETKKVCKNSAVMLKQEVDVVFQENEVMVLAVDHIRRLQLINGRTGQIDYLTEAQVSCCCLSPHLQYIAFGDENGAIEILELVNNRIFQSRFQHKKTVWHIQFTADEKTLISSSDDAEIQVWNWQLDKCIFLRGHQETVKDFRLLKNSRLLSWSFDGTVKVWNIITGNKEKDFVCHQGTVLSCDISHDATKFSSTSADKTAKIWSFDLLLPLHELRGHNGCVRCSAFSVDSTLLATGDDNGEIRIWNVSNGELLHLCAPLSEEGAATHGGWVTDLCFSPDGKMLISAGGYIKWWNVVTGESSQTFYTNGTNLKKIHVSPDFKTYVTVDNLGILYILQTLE

[23] = blockers of HIV-1 envelope-mediated cell-cell fusion – cherry-pick, dose response (AID 652057); format: functional, cell-based

## Nc1nc(C(=O)N2CCOCC2)nn1C(=O)c1ccc(Cl)cc1
[1]
  IC50: 0.00512 µM (active)
[2]
  AC50: 12.5 µM (active)
[3]
  EC50: 23.4 µM (active)

## CC[n+]1c(S(=O)(=O)[O-])ccc2ccc(C)cc21
[4]
  EC50: > 350 µM (not active)
[5]
  EC50: > 350 µM (not active)

## CCOc1ccc(C(=O)C2=C(O)C(=O)N(c3ccccn3)C2c2ccc(F)cc2)c(C)c1 (configuration not stated)
[6]
  IC50: 13 µM (inactive)
[7]
  IC50: > 138 µM (inactive)

## c1ccc2c(c1)OCC(CNc1[nH]cnc3ncnc1-3)O2 (configuration not stated)
[8]
  AC50: 7.15 µM (active)
[9]
  AC50: 2.64 µM (active)

## CCn1cc(C(=O)NCc2ccc(Cl)cc2)c(=O)c2cc(S(=O)(=O)N3CCOCC3)ccc21
[1]
  IC50: 8.07 µM (active)

## Sc1nc(Cc2ccc(Cl)cc2)nc2ccccc12
[6]
  IC50: 7.46 µM (active)
[7]
  IC50: > 138 µM (inactive)

## Cc1cccc(NC(=S)NC(=O)/C=C/c2ccccc2)n1
[1]
  IC50: > 50 µM (not active)

## CC(Oc1ccc2ccc(=O)oc2c1)C(=O)NCCN1CCOCC1 (configuration not stated)
[4]
  EC50: > 350 µM (not active)
[5]
  EC50: > 350 µM (not active)

## O=C1OC(Nc2ccc3c(c2)OCO3)c2ccccc21 (configuration not stated)
[10]
  IC50: > 50 µM (not active)
[11]
  AC50: 0.577 µM (active)

## Cc1c(-c2cccs2)[n+]([O-])c2c([n+]1[O-])CCC2
[1]
  IC50: > 50 µM (not active)

## CC(C)c1nc(SCC(=O)Nc2nc3c(s2)CCCC3)c2ccccc2n1
[6]
  IC50: 5.97 µM (active)
[7]
  IC50: > 138 µM (inactive)

## CC(C)CC(NC(=O)c1ccccc1NC(=O)c1ccccc1)C(=O)O (configuration not stated)
[4]
  EC50: > 350 µM (not active)
[5]
  EC50: > 350 µM (not active)

## O=C1C2C3C=CC(C3)C2C(=O)N1c1cccc2cccnc12 (configuration not stated)
[10]
  IC50: 21.4 µM (active)

## Cc1ccc(S(=O)(=O)N2[C@@H](c3cccc(Cl)c3)C(C(=O)O)=CC[C@H]2c2ccc(Cl)c(Cl)c2)cc1
[12]
  CC50: > 40 µM (active)
[13]
  IC50: 57.9 µM (active)

## Cc1cnc(NC(=O)c2cc(S(=O)(=O)N(C)C)ccc2N2CCCC2)s1
[6]
  IC50: 2.87 µM (active)
[7]
  IC50: > 138 µM (inactive)

## O=C(O)C1=CC[C@@H](c2ccc(Cl)cc2)N(S(=O)(=O)c2ccc(Cl)cc2)[C@H]1c1ccc(Br)cc1
[12]
  CC50: > 40 µM (active)
[13]
  IC50: 36.5 µM (active)

## COc1ccc(C(=O)CC(Sc2ccccc2N)c2ccc(OC)cc2)cc1 (configuration not stated)
[14]
  AC50: 48.4 µM (active)
[15]
  AC50: > 52 µM (inactive)
[16]
  AC50: 28.7 µM (active)

## CCOC(=O)COc1cc(Br)c(/C=N/Nc2ccccc2)cc1OC
[6]
  IC50: 16.4 µM (inactive)
[7]
  IC50: > 138 µM (inactive)

## O=[N+]([O-])c1ccc(N/N=C/c2ccc(O)c(O)c2O)c(S(=O)(=O)N2CCOCC2)c1
[17]
  EC50: 24.9 µM (active)
[18]
  EC50: > 38 µM (not active)
[19]
  IC50: 2.98 µM (active)
[20]
  IC50: > 50 µM (not active)
[21]
  IC50: 55.6 µM (inactive)
[22]
  IC50: 21.4 µM (active)
[13]
  IC50: 4.6 µM (active)

## COc1ccc(NC(=O)Nc2ccc3c(c2)C(=O)N([C@H](C)CO)C[C@H](C)[C@H](CN(C)CC2CC2)OCCCC[C@H](C)O3)cc1
[23]
  AC50: 25.9 µM (active)
[8]
  AC50: 26.5 µM (active)
[9]
  AC50: 23.5 µM (active)

## C[C@H](CO)N1C[C@H](C)[C@H](CN(C)Cc2cccnc2)OCc2ccccc2-c2c(n(C)c3ccccc23)C1=O
[23]
  AC50: 15.6 µM (active)
[8]
  AC50: 1.21 µM (active)
[9]
  AC50: 0.805 µM (active)
